Laboratory results: paper PMC7381729, “A new class of PentixaFor- and PentixaTher-based theranostic agents with enhanced CXCR4-targeting efficiency” (Theranostics, 2020)
Where two headings read alike, the source gives them in different places. One block for each molecule: values may come before it. Where a SMILES comes first, the peptide text is derived from it. Side-chain parts run from the residue outwards. [ ]: non-standard residue; d: D form. The star is where a group is joined. DOTA = O=C(O)CN1CCN(CC(=O)O)CCN(CC(=O)*)CCN(CC(=O)O)CC1; dTyr(3-I) = N[C@H](Cc1ccc(O)c(I)c1)C(=O)O; 2Nal = N[C@@H](Cc1ccc2ccccc2c1)C(=O)O; dNMeOrn = CN[C@H](CCCN)C(=O)O; 4Abz = Nc1ccc(C(=O)O)cc1

Tests used:
[1] = Biodistribution in Daudi xenograft bearing mice; type: in vivo, mouse; settings: female, CB-17 SCID, mouse, iv, total radioactivity, means ± SD; for tissue uptake at 6 h: 6h p.i.; for tissue uptake at 48 h / tissue to tissue ratio at 48 h: 48h p.i.; for tissue to tissue ratio at 48 h: n=4-5 animals
Protocol: The biodistribution of selected compounds was investigated in Daudi (human B-cell lymphoma) xenograft bearing female CB-17 SCID mice (6-8 weeks, Charles River, Sulzfeld, Germany), [29]. All animal experiments were performed in accordance with current animal welfare regulations in Germany (approval #55.2-1-54-2532-71-13).
Animals (n=4-5 per group) were injected intravenously with 5-10 MBq (0.08-0.11 nmol peptide per mouse) of the respective ^68Ga- and^ 177Lu-labeled CXCR4 ligands in PBS (100 µL) into the tail vein under isoflurane anesthesia. CXCR4-specificity of binding was determined by coinjection of 50 µg AMD3100 per mouse. The animals were sacrificed 1, 6 and 48h post injection (p.i.), and the organs of interest were dissected. The radioactivity was measured in weighted tissue samples using a γ-counter. Data are expressed in % ID/g tissue (mean ± SD).

human CXCR4 (hCXCR4) = target: T1, human CXCR4 (hCXCR4) (Homo sapiens, UniProt P61073); experiment: Competition binding to hCXCR4, Jurkat cells, [125I]FC-131 as radioligand; settings: Jurkat cells 400.000 cells/sample, means ± SD of min. three separate experiments
T1 construct: hCXCR4-expressing Jurkat human T-cell leukemia cells; endogenous in cells; host or cells: Jurkat human T-cell leukemia cells (whole cells)
Protocol: Experiments were performed in triplicate with n=3 per concentration in each experiment. IC50 values were calculated using GraphPad Prism 6.01 (Graph Pad Software, San Diego, USA).
Figure 2 Binding affinities (IC50 in nM) of the respective ^natGa-, ^natLu-, ^natY- and ^natBi-complexes of PentixaFor (entry 1), PentixaTher (entry 2) and a series of CPCR4-(blue) and iodoCPCR4-(black) derived analogs with modified linker structure (entries 3-14) to human CXCR4 (hCXCR4). […] Each experiment was performed in triplicate, and results are means ± SD from a minimum of three separate experiments. TEXT PRINTED IN THE PICTURE: 1: ^natGa-complex IC50 [nM]: 24.8 ± 2.5; ^natLu-complex IC50 [nM]: 41 ± 12; ^natY-complex IC50 [nM]: 40 ± 27 | 2: ^natGa-complex IC50 [nM]: 6.1 ± 1.5; ^natLu-complex IC50 [nM]: 14.6 ± 1.0; ^natY-complex IC50 [nM]: 20.4 ± 0.3; ^natBi-complex IC50 [nM]: 24.4 ± 3.7 | 3: ^natGa-complex IC50 [nM]: 282 ± 90; ^natLu-complex IC50 [nM]: 12.5 ± 3.2; ^natY-complex IC50 [nM]: 216 ± 33; ^natBi-complex IC50 [nM]: 27 ± 14 | 4: ^natGa-complex IC50 [nM]: 14.4 ± 0.3; ^natLu-complex IC50 [nM]: 28 ± 9; ^natY-complex IC50 [nM]: 83 ± 30 | 5: ^natLu-complex IC50 [nM]: 106 ± 10 | 6: ^natGa-complex IC50 [nM]: 7.9 ± 1.1; ^natLu-complex IC50 [nM]: 5.9 ± 0.3; ^natY-complex IC50 [nM]: 6.7 ± 1.2; ^natBi-complex IC50 [nM]: 14.5 ± 0.2 | 7: ^natGa-complex IC50 [nM]: 47 ± 8; ^natLu-complex IC50 [nM]: 39 ± 1; ^natY-complex IC50 [nM]: 43 ± 2 | 8: ^natGa-complex IC50 [nM]: 3.6 ± 0.7; ^natLu-complex IC50 [nM]: 3.5 ± 0.3; ^natY-complex IC50 [nM]: 4.1 ± 1.3; ^natBi-complex IC50 [nM]: 3.5 ± 0.4 | 9: ^natGa-complex IC50 [nM]: 8.9 ± 3.8; ^natLu-complex IC50 [nM]: 8.0 ± 3.1; ^natY-complex IC50 [nM]: 6.3 ± 2.5 | 10: ^natGa-complex IC50 [nM]: 2.4 ± 0.1; ^natLu-complex IC50 [nM]: 3.6 ± 1.1; ^natY-complex IC50 [nM]: 2.4 ± 0.2; ^natBi-complex IC50 [nM]: 38 ± 25 | 11: ^natGa-complex IC50 [nM]: 9.7 ± 2.8; ^natLu-complex IC50 [nM]: 5.4 ± 1.6; ^natY-complex IC50 [nM]: 8.7 ± 2.9 | 12: ^natGa-complex IC50 [nM]: 1.4 ± 0.2; ^natLu-complex IC50 [nM]: 2.1 ± 0.3; ^natY-complex IC50 [nM]: 2.1 ± 0.3; ^natBi-complex IC50 [nM]: 2.9 ± 0.1 | 13: ^natGa-complex IC50 [nM]: 0.4 ± 0.1; ^natLu-complex IC50 [nM]: 1.5 ± 0.1; ^natY-complex IC50 [nM]: 1.5 ± 0.1 | 14: ^natGa-complex IC50 [nM]: 2.6 ± 1.0; ^natLu-complex IC50 [nM]: 1.7 ± 0.6; ^natY-complex IC50 [nM]: 1.6 ± 0.5; ^natBi-complex IC50 [nM]: 1.8 ± 0.8

[2] = adrenals, i.v., n=4-5, read-out: Biodistribution adrenals
[3] = blood, i.v., n=4-5, read-out: Biodistribution blood
[4] = colon, i.v., n=4-5, read-out: Biodistribution colon
[5] = femur, i.v., n=4-5, read-out: Biodistribution femur
[6] = heart, i.v., n=4-5, read-out: Biodistribution heart
[7] = kidney, i.v., n=4-5, read-out: Biodistribution kidney
[8] = liver, i.v., n=4-5, read-out: Biodistribution liver
[9] = lung, i.v., n=4-5, read-out: Biodistribution lung
[10] = muscle, i.v., n=4-5, read-out: Biodistribution muscle
[11] = pancreas, i.v., n=4-5, read-out: Biodistribution pancreas
[12] = small intestine, i.v., n=4-5, read-out: Biodistribution small intestine
[13] = spleen, i.v., n=4-5, read-out: Biodistribution spleen
[14] = stomach, i.v., n=4-5, read-out: Biodistribution stomach
[15] = tumor (Daudi xenograft), i.v., n=4-5, read-out: Biodistribution tumor (Daudi xenograft)
[16] = natBi-complex, read-out: ^natBi-complex IC50 to hCXCR4
[17] = natGa-complex, read-out: ^natGa-complex IC50 to hCXCR4
[18] = natLu-complex, read-out: ^natLu-complex IC50 to hCXCR4
[19] = natY-complex, read-out: ^natY-complex IC50 to hCXCR4

T1 sequence (P61073 whole entry): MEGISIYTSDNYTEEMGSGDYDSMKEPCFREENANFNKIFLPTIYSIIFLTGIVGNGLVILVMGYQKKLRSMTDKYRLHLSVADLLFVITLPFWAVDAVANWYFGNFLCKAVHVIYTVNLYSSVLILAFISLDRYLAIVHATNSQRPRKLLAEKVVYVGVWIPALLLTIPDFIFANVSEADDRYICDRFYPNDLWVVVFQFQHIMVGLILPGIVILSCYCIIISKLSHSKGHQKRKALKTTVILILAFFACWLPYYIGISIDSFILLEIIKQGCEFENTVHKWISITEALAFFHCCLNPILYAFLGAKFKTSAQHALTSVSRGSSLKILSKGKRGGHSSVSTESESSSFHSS

tissue uptake at 6 h [1, 2]: 0.68 ± 0.21 %ID/g
tissue uptake at 48 h [1, 2]: 0.6 ± 0.12 %ID/g
tissue uptake at 6 h [1, 3]: 0.17 ± 0.09 %ID/g
tissue uptake at 48 h [1, 3]: 0.03 ± 0.01 %ID/g
tissue uptake at 1 h ([1]; brain, 1h p.i., tracer only, i.v., γ-counter, n=4-5, read-out: Biodistribution brain): 0.08 ± 0.01 %ID/g
tissue uptake at 6 h [1, 4]: 0.49 ± 0.2 %ID/g
tissue uptake at 48 h [1, 4]: 0.43 ± 0.3 %ID/g
tissue uptake at 6 h [1, 5]: 0.56 ± 0.23 %ID/g
tissue uptake at 48 h [1, 5]: 0.34 ± 0.08 %ID/g
tissue uptake at 6 h [1, 6]: 0.28 ± 0.05 %ID/g
tissue uptake at 48 h [1, 6]: 0.19 ± 0.02 %ID/g
tissue uptake at 6 h [1, 7]: 3.2 ± 0.45 %ID/g
tissue uptake at 48 h [1, 7]: 2.58 ± 0.69 %ID/g
tissue uptake at 6 h [1, 8]: 17.1 ± 3.09 %ID/g
tissue uptake at 48 h [1, 8]: 14.6 ± 2 %ID/g
tissue uptake at 6 h [1, 9]: 1.07 ± 0.26 %ID/g
tissue uptake at 48 h [1, 9]: 0.57 ± 0.04 %ID/g
tissue uptake at 6 h [1, 10]: 0.06 ± 0.01 %ID/g
tissue uptake at 48 h [1, 10]: 0.04 %ID/g
tissue uptake at 6 h [1, 11]: 0.11 ± 0.02 %ID/g
tissue uptake at 48 h [1, 11]: 0.09 ± 0.01 %ID/g
tissue uptake at 6 h [1, 12]: 0.24 ± 0.06 %ID/g
tissue uptake at 48 h [1, 12]: 0.16 ± 0.06 %ID/g
tissue uptake at 6 h [1, 13]: 2.95 ± 0.75 %ID/g
tissue uptake at 48 h [1, 13]: 2.72 ± 0.5 %ID/g
tissue uptake at 6 h [1, 14]: 0.25 ± 0.09 %ID/g
tissue uptake at 48 h [1, 14]: 0.14 ± 0.02 %ID/g
tissue uptake at 6 h [1, 15]: 12.5 ± 2.56 %ID/g
tissue uptake at 48 h [1, 15]: 8.11 ± 0.96 %ID/g
tissue to tissue ratio at 48 h ([1]; tumor / blood, read-out: Tumor/organ ratio t/blood): 320 ± 104
tissue to tissue ratio at 48 h ([1]; tumor / colon, read-out: Tumor/organ ratio t/colon): 19 ± 13
tissue to tissue ratio at 48 h ([1]; tumor / heart, read-out: Tumor/organ ratio t/heart): 42 ± 7
tissue to tissue ratio at 48 h ([1]; tumor / kidney, read-out: Tumor/organ ratio t/kidney): 3.1 ± 0.9
tissue to tissue ratio at 48 h ([1]; tumor / liver, read-out: Tumor/organ ratio t/liver): 0.6 ± 0.1
tissue to tissue ratio at 48 h ([1]; tumor / lung, read-out: Tumor/organ ratio t/lung): 14 ± 2
tissue to tissue ratio at 48 h ([1]; tumor / muscle, read-out: Tumor/organ ratio t/muscle): 226 ± 36
tissue to tissue ratio at 48 h ([1]; tumor / small intestine, read-out: Tumor/organ ratio t/small intestine): 50 ± 20
tissue to tissue ratio at 48 h ([1]; tumor / spleen, read-out: Tumor/organ ratio t/spleen): 3 ± 0.7
tissue to tissue ratio at 48 h ([1]; tumor / stomach, read-out: Tumor/organ ratio t/stomach): 58 ± 12
Molecule: C[C@@H](NC(=O)[C@@H](CCCNC(=N)N)NC(=O)CN1CCN(CC(=O)O)CCN(CC(=O)O)CCN(CC(=O)O)CC1)C(=O)Nc1ccc(C(=O)NCCC[C@@H]2C(=O)N[C@@H](CCCNC(=N)N)C(=O)N[C@@H](Cc3ccc4ccccc4c3)C(=O)NCC(=O)N[C@H](Cc3ccc(O)c(I)c3)C(=O)N2C)cc1 [[^177Lu]DOTA-r-a-ABA-iodoCPCR4, metal not drawn] (cyclo([2Nal]G[dTyr(3-I)][dNMeOrn]([4Abz-dA-dR-DOTA])R))

IC50 (human CXCR4 (hCXCR4); [16]): 27 ± 14 nM
IC50 (human CXCR4 (hCXCR4); [17]): 282 ± 90 nM
IC50 (human CXCR4 (hCXCR4); [18]): 12.5 ± 3.2 nM
IC50 (human CXCR4 (hCXCR4); [19]): 216 ± 33 nM
Molecule: DOTA-ABA-iodoCPCR4 (head to tail) [entry 3]

IC50 (human CXCR4 (hCXCR4); [16]): 24.4 ± 3.7 nM
IC50 (human CXCR4 (hCXCR4); [17]): 6.1 ± 1.5 nM
IC50 (human CXCR4 (hCXCR4); [18]): 14.6 ± 1 nM
IC50 (human CXCR4 (hCXCR4); [19]): 20.4 ± 0.3 nM
Molecule: DOTA-AMBS-iodoCPCR4 (head to tail) [entry 2, PentixaTher]
